IC50 data for 54 molecules are collected here from patent US12528816B2, “Substituted imidazo [1,2-b] pyridazines and [1, 2, 4] triazolo [ 4,3-b] pyridazines as camkii inhibitors” (Cardurion Pharmaceuticals, INC., priority 2020, dated 2026).

Structures are written as SMILES.

In the first test the target is T1, human CaMKIIδ (Homo sapiens, UniProt Q13557).
T1 construct: Full-length, glutathione-S-transferase(GST)-tagged, human CaMKIIδ was purchased from Carna Biosciences; purchased Carna Biosciences (CaMKIIδ); Wako Pure Chemical Industries (calmodulin) 02-111
Kind of test: Evaluation of in vitro CaMKII inhibitory activity (binding assay, TR-FRET). The note with it: human CaMKIIδ, TR-FRET binding assay; class symbols A/B/C; read-out: Act (CaMKII inhibitory activity, binding assay). The procedure, abridged:
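Inhibitors, in eight concentrations of 4-fold dilution, were incubated 1 h at room temperature with a protein–fluorescent probe premix preformed 30 min on ice, containing calmodulin and terbium anti-GST antibody. Displacement read by TR-FRET in duplicate; IC50 by logistic fitting.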
(In TR-FRET formats the signal depends on donor and acceptor labels being close together.)
For `COC(=O)c1cccc(-n2cnc3ccc(-c4ccc(F)c(O[C@@H](C)Cn5cnnn5)c4)nc32)c1C#N` [compound 179], the IC50 was 10 to 100 nM.

As for `COCCNc1cccc(-c2cnn3ccc(-c4ccc(F)c(O[C@@H](C)Cn5cnnn5)c4)nc23)c1C#N` [compound 180], the IC50 was less than 10 nM. Take `C[C@@H](Cn1cnnn1)Oc1cc(-c2ccc3ncc(-c4cccc(N)c4C#N)n3n2)ccc1F` [compound 181]: the IC50 is less than 10 nM. Turning to `COCCC(=O)Nc1cccc(-c2cnc3ccc(-c4ccc(F)c(O[C@@H](C)Cn5cnnn5)c4)nn23)c1C#N` [compound 182], the IC50 was less than 10 nM. For the molecule `C#Cc1ccccc1-c1cnc2ccc(-c3ccc(F)c(O[C@@H](C)Cn4cnnn4)c3)nn12` [compound 183], the IC50 was less than 10 nM. Consider `C[C@@H](Cn1cnnn1)Oc1cc(-c2ccc3ncc(-c4cc(C(N)=O)ccc4C(N)=O)n3n2)ccc1F` [compound 184], for which the IC50 was more than 100 nM. Still for that read-out and setting: the figure for `C[C@@H](Cn1cnnn1)Oc1cc(-c2ccc3ncc(-c4cc(C#N)ccc4C#N)n3n2)ccc1F` [compound 185] is less than 10 nM; for `C[C@@H](Cn1cnnn1)Oc1cc(-c2ccc3ncc(-c4cccc(C#N)c4C#N)n3n2)ccc1F` [compound 186] it is less than 10 nM. With `C[C@@H](Cn1cnnn1)Oc1cc(-c2ccc3ncc(-c4cc(Br)cc5c4OCC5)n3n2)ccc1F` [compound 187], the IC50 is less than 10 nM. For `COC(=O)c1cccc(-n2cnc3ccc(-c4ccc(F)c(O[C@@H](C)Cn5cnnn5)c4)nc32)n1` [compound 188], the IC50 was less than 10 nM. The same measure, in the same setting: for `C[C@@H](Cn1cnnn1)Oc1cc(-c2ccc3ncn(-c4cccc(C(=O)O)c4C#N)c3n2)ccc1F` [compound 189] the value was 10 to 100 nM; for `C=Cc1ccccc1-c1cnc2ccc(-c3ccc(F)c(O[C@@H](C)Cn4cnnn4)c3)nn12` [compound 190], less than 10 nM. On the same count and under the same terms, the figure for `C[C@@H](Cn1cnnn1)Oc1cc(-c2ccc3ncc(-c4cccc(N=S(C)(C)=O)c4C#N)n3n2)ccc1F` [compound 191] is less than 10 nM. Take `COCCN1C(=O)c2cccc(-n3cnc4ccc(-c5ccc(F)c(O[C@@H](C)Cn6cnnn6)c5)nc43)c2C1=O` [compound 192]: the IC50 was more than 100 nM. `C[C@@H](Cn1cnnn1)Oc1cc(-c2ccc3ncn(-c4cccc5c4C(=O)N(C)C5=O)c3n2)ccc1F` [compound 193]: the IC50 was more than 100 nM. As to `C[C@@H](Cn1cnnn1)Oc1cc(-c2ccc3ncc(-c4cccnc4N)n3n2)ccc1F` [compound 194], the IC50 lay within 10 to 100 nM. Regarding `CC(Cn1cnnn1)Oc1cc(-c2ccc3ncc(-c4cccc(OC5CCC(N6CC(C)OC(C)C6)CC5)c4C#N)n3n2)ccc1F` [compound 195, 2-[6-(4-fluoro-3-{[(2S)-1-(1H-tetrazol-1-yl)propan-2-yl]oxy}phenyl)imidazo[1,2-b]pyridazin-3-yl]-6-{[(1r,4r)-4-[(2R,6S)-2,6-dimethylmorpholin-4-yl]cyclohexyl]oxy}benzonitrile], the IC50 was less than 10 nM. Consider `C[C@@H](Cn1cnnn1)Oc1cc(-c2ccc3ncc(-c4cccn(C)c4=O)n3n2)ccc1F` [compound 196], for which the IC50 is less than 10 nM. Still for that read-out and setting: for `COc1cccc(-c2cnc3ccc(-c4ccc(F)c(O[C@@H](C)Cn5cnnn5)c4)nn23)c1C#N` [compound 197] the value was less than 10 nM. `C[C@@H](Cn1cnnn1)Oc1cc(-c2ccc3ncc(-c4cccc(OCC5CCNC5=O)c4C#N)n3n2)ccc1F` (stereo partly drawn) [compound 198]: the IC50 is less than 10 nM.

As to `C[C@@H](Cn1cnnn1)Oc1cc(-c2ccc3ncc(-c4cccc(OCC5CNC(=O)C5)c4C#N)n3n2)ccc1F` (stereo partly drawn) [compound 199], the IC50 is less than 10 nM. For the molecule `C[C@@H](Cn1cnnn1)Oc1cc(-c2ccc3ncc(-c4cccc(OCC5CCC(=O)N5)c4C#N)n3n2)ccc1F` (stereo partly drawn) [compound 200], the IC50 is less than 10 nM. As to `C[C@@H](Cn1cnnn1)Oc1cc(-c2ccc3ncc(-c4cccc(OCC5CCN(C)C5)c4C#N)n3n2)ccc1F` (stereo partly drawn) [compound 201], the IC50 is less than 10 nM. On to `C[C@@H](Cn1cnnn1)Oc1cc(-c2ccc3ncc(-c4cccc(OCC(N)=O)c4C#N)n3n2)ccc1F` [compound 202], for which the IC50 was less than 10 nM. The same measure, in the same setting: the figure for `C[C@@H](Cn1cnnn1)Oc1cc(-c2ccc3ncc(-c4cccc(OCC5CCOCC5)c4C#N)n3n2)ccc1F` [compound 203] is less than 10 nM; for `CC(=O)NCCCOc1cccc(-c2cnc3ccc(-c4ccc(F)c(O[C@@H](C)Cn5cnnn5)c4)nn23)c1C#N` [compound 204] it is less than 10 nM; for `CC(=O)N(C)CCOc1cccc(-c2cnc3ccc(-c4ccc(F)c(O[C@@H](C)Cn5cnnn5)c4)nn23)c1C#N` [compound 205] it is less than 10 nM. On to `C[C@@H](Cn1cnnn1)Oc1cc(-c2ccc3ncc(-c4cccc(OCC(F)F)c4C#N)n3n2)ccc1F` [compound 206], for which the IC50 is less than 10 nM. On the same count and under the same terms, for `C[C@@H](Cn1cnnn1)Oc1cc(-c2ccc3ncc(-c4cccc(OCCN5CCCC5=O)c4C#N)n3n2)ccc1F` [compound 207] the value was less than 10 nM.

In the case of `C[C@@H](Cn1cnnn1)Oc1cc(-c2ccc3ncc(-c4cccc(OCCC5CCNCC5)c4C#N)n3n2)ccc1F` [compound 208], the IC50 is less than 10 nM. With `C[C@@H](Cn1cnnn1)Oc1cc(-c2ccc3ncc(-c4cccc(OCCOCCN(C)C)c4C#N)n3n2)ccc1F` [compound 209], the IC50 was less than 10 nM. Take `C[C@@H](Cn1cnnn1)Oc1cc(-c2ccc3ncc(-c4cccc(OCC5CCC5)c4C#N)n3n2)ccc1F` [compound 210]: the IC50 is less than 10 nM. `C[C@@H](Cn1cnnn1)Oc1cc(-c2ccc3ncc(-c4cccc(OCCN5C(=O)CCC5=O)c4C#N)n3n2)ccc1F` [compound 211]: the IC50 was less than 10 nM. In the case of `COCCOCCOCCOc1cccc(-c2cnc3ccc(-c4ccc(F)c(O[C@@H](C)Cn5cnnn5)c4)nn23)c1C#N` [compound 212], the IC50 was less than 10 nM.

As for `CC(C)Oc1cccc(-c2cnc3ccc(-c4ccc(F)c(O[C@@H](C)Cn5cnnn5)c4)nn23)c1C#N` [compound 213], the IC50 was less than 10 nM. As to `C[C@@H](Cn1cnnn1)Oc1cc(-c2ccc3ncc(-c4cccc(OCC(F)(F)F)c4C#N)n3n2)ccc1F` [compound 214], the IC50 was less than 10 nM. For the molecule `C[C@@H](Cn1cnnn1)Oc1cc(-c2ccc3ncc(-c4cccc(OCCN5CCC5)c4C#N)n3n2)ccc1F` [compound 215], the IC50 is less than 10 nM.

For the molecule `C[C@@H](Cn1cnnn1)Oc1cc(-c2ccc3ncc(-c4cccc(OCC(=O)O)c4C#N)n3n2)ccc1F` [compound 216], the IC50 is less than 10 nM. Consider `C[C@@H](Cn1cnnn1)Oc1cc(-c2ccc3ncc(-c4cccc(OCCCC(=O)O)c4C#N)n3n2)ccc1F` [compound 217], for which the IC50 was less than 10 nM.

As to `C[C@@H](Cn1cnnn1)Oc1cc(-c2ccc3ncc(-c4cccc[n+]4[O-])n3n2)ccc1F` [compound 218], the IC50 lay in the range of 10 to 100 nM. Still for that read-out and setting: for `COc1ncc(C#N)cc1-c1cnc2ccc(-c3ccc(F)c(O[C@@H](C)Cn4cnnn4)c3)nn12` [compound 219] the value was less than 10 nM; for `C[C@@H](Cn1cnnn1)Oc1cc(-c2ccc3ncc(-c4cc(C#N)c[nH]c4=O)n3n2)ccc1F` [compound 220], less than 10 nM; for `C[C@@H](Cn1cnnn1)Oc1cc(-c2ccc3ncc(-c4cc(C#N)cn(C)c4=O)n3n2)ccc1F` [compound 221], less than 10 nM.

For `C[C@@H](Cn1cnnn1)Oc1cc(-c2ccc3ncc(-c4cn(CCCO)nc4C#N)n3n2)ccc1F` [compound 222], the IC50 lay in the range of 10 to 100 nM. As for `COCCCn1ncc(-c2cnc3ccc(-c4ccc(F)c(O[C@@H](C)Cn5cnnn5)c4)nn23)c1C#N` [compound 223, 4-[6-(4-fluoro-3-{[(2S)-1-(1H-tetrazol-1-yl)propan-2-yl]oxy}phenyl)imidazo[1,2-b]pyridazin-3-yl]-1-(3-methoxypropyl)-1H-pyrazole-5-carbonitrile], the IC50 is less than 10 nM. On the same count and under the same terms, the figure for `COCCCOC(=O)c1c(-c2cnc3ccc(-c4ccc(F)c(O[C@@H](C)Cn5cnnn5)c4)nn23)cnn1CCCOC` [compound 224] is more than 100 nM; for `C[C@@H](Cn1cnnn1)Oc1cc(-c2ccc3ncc(-c4cnn(CCCO)c4C#N)n3n2)ccc1F` [compound 225] it is less than 10 nM.

In the case of `C[C@@H](Cn1cnnn1)Oc1cc(-c2ccc3ncc(-c4cccc(OCC(C)(C)C#N)c4C#N)n3n2)ccc1F` [compound 226, 2-(2-cyano-2,2-dimethylethoxy)-6-[6-(4-fluoro-3-{[(2S)-1-(1H-tetrazol-1-yl)propan-2-yl]oxy}phenyl)imidazo[1,2-b]pyridazin-3-yl]benzonitrile], the IC50 was less than 10 nM.

Take `C[C@@H](Cn1cnnn1)Oc1cc(-c2ccc3ncc(-c4ccccn4)n3n2)ccc1F` [compound 227, 2-[6-(4-fluoro-3-{[(2S)-1-(1H-tetrazol-1-yl)propan-2-yl]oxy}phenyl)imidazo[1,2-b]pyridazin-3-yl]pyridine]: the IC50 was less than 10 nM. Take `C[C@@H](Cn1cnnn1)Oc1cc(-c2ccc3ncn(-c4cccc(C(=O)N(C)C)c4C#N)c3n2)ccc1F` [compound 228]: the IC50 is more than 100 nM. The same measure, in the same setting: for `COC1CN(C(=O)c2cccc(-n3cnc4ccc(-c5ccc(F)c(O[C@@H](C)Cn6cnnn6)c5)nc43)c2C#N)C1` [compound 229, 2-[5-(4-fluoro-3-{[(2S)-1-(1H-tetrazol-1-yl)propan-2-yl]oxy}phenyl)-3H-imidazo[4,5-b]pyridin-3-yl]-6-(3-methoxyazetidine-1-carbonyl)benzonitrile] the value was 10 to 100 nM; for `COCCCn1ncc(-c2cnc3ccc(-c4ccc(F)c(O[C@@H](C)Cn5cnnn5)c4)nn23)c1C(=O)O` [compound 230], more than 100 nM.

Staying with this test, now noted: in vitro CaMKII inhibitory activity (binding assay), human CaMKIIδ; read-out: Act.
`C[C@@H](Cn1cnnn1)Oc1cc(-c2ccc3ncc(-c4nccc(NC(=O)OC(C)(C)C)c4C#N)n3n2)ccc1F` [compound 231]: the IC50 was less than 10 nM. Consider `C[C@@H](Cn1cnnn1)Oc1cc(-c2ccc3ncc(-c4nccc(N(C(=O)OC(C)(C)C)C(=O)OC(C)(C)C)c4C#N)n3n2)ccc1F` [compound 232], for which the IC50 was less than 10 nM.
